Measurements taken from article PMC10597649, “Effect of Astragali radix extract on pharmacokinetic behavior of dapagliflozin in healthy and type 2 diabetic rats” (Frontiers in Pharmacology, 2023).

How the values were obtained:
in vivo = conditions: for Cmax / MRT last / half-life / Tmax: male, Sprague-Dawley, rat, plasma, po; for MRT last: MRT(0-t)
Experimental: An AB SCIEX (USA) Exion LC system consisting of vacuum degasser, binary pump and auto-sampler were used for solvent and sampler delivery. Chromatographic separation was achieved using Agilent Poroshell 120 EC-C18 column (2.1 × 100 mm, 1.9 μm). The column temperature was maintained at 40°C. The mobile phase consisted of 0.1% formic acid-1mM ammonium formate-water solution (A) and acetonitrile (B) was used, and the flow rate was set at 0.3 mL/min. The gradient elution program was as follows: 0–2.0 min (90%–65% A), 2.0–6.0 min (65%–60% A), 6.0–7.0 min (60%–90% A), 7–10 min (90% A). The processed samples were stored at 4°C in an auto sampler. The sample injection volume was 2 μL. An AB SCIEX (USA) Q-TRAP 6500 model mass spectrometer (MS) equipped with a turbolon spray ionization (ESI) source was used for mass analysis and detection. DAPA and the internal standard (IS, i.e., empagliflozin) were analyzed in positive ion mode with multiple reaction monitoring (MRM) pairs: m/z 426.1–355.0 for DAPA and m/z 468.1–355.1 for IS. The ion spray voltage was set at 5500V. The curtain gas, ion source gas 1 and ion source gas 2 were set at 35, 60 and 50 psi, respectively. The source temperature was kept at 200°C. The collision gas was set at low flow rate. The declustering potential and collision energy were 35 V and 19 V for DAPA, 40 V and 21 V for IS.
The rat plasma samples (50 μL), IS working solution (5 μL), 50% methanol (5 μL), and MTBE (500 μL) were mixed, then were vortexed for 3 min and centrifuged for 5 min (4000 rpm, 4°C). The organic phase was transferred to a new centrifuged tube and evaporated to dryness with a stream of nitrogen at room temperature. The dried samples were redissolved with 100 µL of 50% methanol and vortexed for 1 min, then 2 µL of supernatant fluid was injected into the LC-MS/MS instrument for analysis.
Male Sprague Dawley (SD) rats (180–220g, 6–8 weeks old) were provided by Animal Experimentation Centre, School of Pharmacy, Fudan University (Shanghai, China). All the experimental procedures for this study were reviewed and approved by Experimental Animal Ethics Committee of School of Pharmacy, Fudan University, which was in strict compliance with the International Code for the Care and Use of Experimental Animals (approval number:2020-04-LY-MG-01). All the animals were housed under standard laboratory conditions of temperature (25°C ± 2°C), constant humidity (55 ± 5%), and light (12 h dark/light cycle), with freely available food and purified water. After 1 week of acclimation, 12 rats were randomly selected as the healthy group that was fed with the ordinary feed. The remaining 20 rats were modeled for T2DM that were fed with high-fat diet (HFD). After 4 weeks, the modeled rats fed HFD were fasted overnight, and measured fasting blood glucose (FBG), then intraperitoneally injected with STZ (35 mg/kg, inject once). One week later, the FBG was measured again, and only those rats whose FBG were over 16.7 mmol/L were considered to be T2DM rats.
Dose of 1 mg/kg for DAPA used in the study was recommended based on the package insert of DAPA and dose conversion per unit weight from humans to rats (6.3 times). ARE was administered to the rats with the dose of 300 mg/kg, which was selected by converting the recommended doses of AR for adults in practice to the doses of ARE for the rats, according to the Pharmacopoeia of the People’s Republic of China. The healthy rats and T2DM rats were randomly assigned to two groups (n = 6 each group). The CD group was the healthy rats intragastrically administered with DAPA in a single dose (1 mg/kg). The CDA group was the healthy rats intragastrically administered with ARE (300 mg/kg) once a day for seven consecutive days, and intragastrically administered with DAPA (1 mg/kg) at the same time on the seventh day. The MD group was the T2DM rats intragastrically administered with DAPA in a single dose (1 mg/kg).

P-gp = conditions: ref Obermeier et al., 2010; cited from earlier work
[1] = MD group: T2DM rats, DAPA alone, single intragastric dose 1.05 mg/kg, n = 6, mean ± SD
[2] = MDA group compared to MD group (T2DM rats, with ARE versus DAPA alone)
[3] = MDA group: T2DM rats, ARE 300 mg/kg intragastric once a day for 7 days + DAPA single dose 1.05 mg/kg on day 7, n = 6, mean ± SD
[4] = MDA-H group: T2DM rats, ARE 900 mg/kg once a day for 7 days + DAPA single dose 1.05 mg/kg on day 7, n=6, mean ± SD
[5] = MDA-L group: T2DM rats, ARE 300 mg/kg once a day for 7 days + DAPA single dose 1.05 mg/kg on day 7, n=6, mean ± SD
[6] = T2DM rats compared to healthy rats, DAPA alone

CCOc1ccc(Cc2cc([C@@H]3O[C@H](CO)[C@@H](O)[C@H](O)[C@H]3O)ccc2Cl)cc1 [DAPA, Dapagliflozin]
AUC(0-inf) (in vivo; [1]): 4505.74±148.96 h*(ng/mL) | AUC(0-t) (in vivo; [1]): 4324.28±185.47 h*(ng/mL) | CL (in vivo; [1]): 233.25±7.80 (mL/h)/kg | V (in vivo; [1]): 1.49898 ± 0.30743 L/kg | decrease of C max (in vivo; [2]): 31.99% | decrease of t max (in vivo; [2]): 62.50% | increase of V (in vivo; [2]): 2.06 fold | increase of t 1/2 (in vivo; [2]): 2.18 fold | AUC(0-inf) (in vivo; [3]): 4865.13±1307.11 h*(ng/mL) | AUC(0-t) (in vivo; [3]): 4051.27±952.61 h*(ng/mL) | CL (in vivo; [3]): 228.25±56.10 (mL/h)/kg | V (in vivo; [3]): 3.09173 ± 1.18358 L/kg | AUC(0-inf) (in vivo; [4]): 4464.67±408.26 h*(ng/mL) | AUC(0-t) (in vivo; [4]): 4070.47±408.83 h*(ng/mL) | CL (in vivo; [4]): 237.88±21.93 (mL/h)/kg | V (in vivo; [4]): 2.55248 ± 0.48245 L/kg | AUC(0-inf) (in vivo; [5]): 4560.99±768.53 h*(ng/mL) | AUC(0-t) (in vivo; [5]): 3991.37±640.65 h*(ng/mL) | CL (in vivo; [5]): 235.15±35.35 (mL/h)/kg | V (in vivo; [5]): 2.91586 ± 0.51024 L/kg | decrease of t max (in vivo; [6]): 29.45% | increase of C max (in vivo; [6]): 62.94% | difference of AUC(0-t), AUC(0-inf), CL, MRT (in vivo; between the MD group and the MDA group (T2DM rats)): no significant difference | changes for t 1/2, V, AUC, CL and MRT (in vivo; healthy rats versus T2DM rats, DAPA alone): no significant changes | Cmax (in vivo; 1.05 mg/kg, C max, MD group: T2DM rats, DAPA alone, single intragastric dose 1.05 mg/kg, n = 6, mean ± SD): 627 ± 68.6 ng/mL | Cmax (in vivo; 1.05 mg/kg, Cmax, MDA-H group: T2DM rats, ARE 900 mg/kg once a day for 7 days + DAPA single dose 1.05 mg/kg on day 7, n=6, mean ± SD): 457 ± 50.4 ng/mL | Cmax (in vivo; 1.05 mg/kg, Cmax, MDA-L group: T2DM rats, ARE 300 mg/kg once a day for 7 days + DAPA single dose 1.05 mg/kg on day 7, n=6, mean ± SD): 433 ± 62.6 ng/mL | MRT last (in vivo; 1.05 mg/kg, MD group: T2DM rats, DAPA alone, single intragastric dose 1.05 mg/kg, n = 6, mean ± SD): 7.57 ± 0.32 h | MRT last (in vivo; 1.05 mg/kg, MDA-H group: T2DM rats, ARE 900 mg/kg once a day for 7 days + DAPA single dose 1.05 mg/kg on day 7, n=6, mean ± SD): 7.23 ± 0.37 h | MRT last (in vivo; 1.05 mg/kg, MDA-L group: T2DM rats, ARE 300 mg/kg once a day for 7 days + DAPA single dose 1.05 mg/kg on day 7, n=6, mean ± SD): 7.39 ± 0.34 h | half-life (in vivo; 1.05 mg/kg, t 1/2, MD group: T2DM rats, DAPA alone, single intragastric dose 1.05 mg/kg, n = 6, mean ± SD): 4.45 ± 0.9 h | half-life (in vivo; 1.05 mg/kg, t1/2, MDA-H group: T2DM rats, ARE 900 mg/kg once a day for 7 days + DAPA single dose 1.05 mg/kg on day 7, n=6, mean ± SD): 7.44 ± 0.86 h | half-life (in vivo; 1.05 mg/kg, t1/2, MDA-L group: T2DM rats, ARE 300 mg/kg once a day for 7 days + DAPA single dose 1.05 mg/kg on day 7, n=6, mean ± SD): 8.64 ± 1.08 h | Tmax (in vivo; 1.05 mg/kg, t max, MD group: T2DM rats, DAPA alone, single intragastric dose 1.05 mg/kg, n = 6, mean ± SD): 4 h | Tmax (in vivo; 1.05 mg/kg, tmax, MDA-H group: T2DM rats, ARE 900 mg/kg once a day for 7 days + DAPA single dose 1.05 mg/kg on day 7, n=6, mean ± SD): 1.45 ± 0.61 h | Tmax (in vivo; 1.05 mg/kg, tmax, MDA-L group: T2DM rats, ARE 300 mg/kg once a day for 7 days + DAPA single dose 1.05 mg/kg on day 7, n=6, mean ± SD): 1.25 ± 0.82 h | Cmax (in vivo; C max, MDA group: T2DM rats, ARE 300 mg/kg intragastric once a day for 7 days + DAPA single dose 1.05 mg/kg on day 7, n = 6, mean ± SD): 427 ± 58.9 ng/mL | MRT last (in vivo; [3]): 7.64 ± 0.7 h | half-life (in vivo; t 1/2, MDA group: T2DM rats, ARE 300 mg/kg intragastric once a day for 7 days + DAPA single dose 1.05 mg/kg on day 7, n = 6, mean ± SD): 9.69 ± 3.47 h | Tmax (in vivo; t max, MDA group: T2DM rats, ARE 300 mg/kg intragastric once a day for 7 days + DAPA single dose 1.05 mg/kg on day 7, n = 6, mean ± SD): 1.5 ± 0.77 h | P-gp substrate (P-gp): substrate of P-gp
